{"source": "ChEMBL document CHEMBL1155237", "about": "“Selective inhibitors of the mutant B-Raf pathway: discovery of a potent and orally bioavailable aminoisoquinoline” (J Med Chem, 2009)", "key": {"[1]": {"molecular_target": "Tyrosine-protein kinase Tec (Homo sapiens) (UniProt P42680)", "assay": "Inhibition of TEC assessed as enzyme activity at 1 uM relative to untreated control", "parameters": "scale not given: the % may be the effect or the level left"}, "[2]": {"system": "Mast/stem cell growth factor receptor Kit (Homo sapiens), P10721 [V559D,T670I]", "sequence (P10721 whole entry V559D/T670I)": "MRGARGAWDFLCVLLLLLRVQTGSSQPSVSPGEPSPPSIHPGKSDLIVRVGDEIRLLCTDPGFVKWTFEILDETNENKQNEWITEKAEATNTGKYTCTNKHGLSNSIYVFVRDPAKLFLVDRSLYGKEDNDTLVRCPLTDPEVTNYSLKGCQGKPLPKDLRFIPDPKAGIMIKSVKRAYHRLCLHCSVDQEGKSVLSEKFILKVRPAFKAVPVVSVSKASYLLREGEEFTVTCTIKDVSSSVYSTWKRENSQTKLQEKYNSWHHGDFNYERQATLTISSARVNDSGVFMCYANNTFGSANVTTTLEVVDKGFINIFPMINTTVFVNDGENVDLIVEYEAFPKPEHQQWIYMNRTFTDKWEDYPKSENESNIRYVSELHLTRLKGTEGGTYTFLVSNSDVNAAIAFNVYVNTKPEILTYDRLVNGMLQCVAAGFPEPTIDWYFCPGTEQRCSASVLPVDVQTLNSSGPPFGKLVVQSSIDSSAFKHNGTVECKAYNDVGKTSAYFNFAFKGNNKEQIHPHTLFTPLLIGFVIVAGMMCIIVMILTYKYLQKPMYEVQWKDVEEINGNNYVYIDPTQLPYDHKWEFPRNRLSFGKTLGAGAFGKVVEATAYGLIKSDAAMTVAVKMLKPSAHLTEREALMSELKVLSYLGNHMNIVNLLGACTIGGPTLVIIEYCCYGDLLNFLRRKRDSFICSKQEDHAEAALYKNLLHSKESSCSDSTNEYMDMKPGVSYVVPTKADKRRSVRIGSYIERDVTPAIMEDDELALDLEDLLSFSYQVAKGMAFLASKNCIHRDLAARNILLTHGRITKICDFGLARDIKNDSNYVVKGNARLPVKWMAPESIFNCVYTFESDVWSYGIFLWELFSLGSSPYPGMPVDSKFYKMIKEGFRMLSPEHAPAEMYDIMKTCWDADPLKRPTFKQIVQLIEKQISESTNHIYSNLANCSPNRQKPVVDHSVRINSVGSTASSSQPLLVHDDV", "assay": "Inhibition of KIT V559D,T670I mutant assessed as enzyme activity at 1 uM relative to untreated control", "parameters": "scale not given: the % may be the effect or the level left"}, "[3]": {"system": "Tyrosine-protein kinase ABL1 (Homo sapiens), P00519 [F317L]", "assay": "Inhibition of ABL1 F317L mutant assessed as enzyme activity at 1 uM relative to untreated control", "parameters": "scale not given: the % may be the effect or the level left"}, "[4]": {"molecular_target": "Glycogen synthase kinase-3 alpha (Homo sapiens) (UniProt P49840)", "assay": "Inhibition of GSK3A assessed as enzyme activity at 1 uM relative to untreated control", "parameters": "scale not given: the % may be the effect or the level left"}, "[5]": {"molecular_target": "Tyrosine-protein kinase receptor Tie-1 (Homo sapiens) (UniProt P35590)", "sequence (P35590 whole entry)": "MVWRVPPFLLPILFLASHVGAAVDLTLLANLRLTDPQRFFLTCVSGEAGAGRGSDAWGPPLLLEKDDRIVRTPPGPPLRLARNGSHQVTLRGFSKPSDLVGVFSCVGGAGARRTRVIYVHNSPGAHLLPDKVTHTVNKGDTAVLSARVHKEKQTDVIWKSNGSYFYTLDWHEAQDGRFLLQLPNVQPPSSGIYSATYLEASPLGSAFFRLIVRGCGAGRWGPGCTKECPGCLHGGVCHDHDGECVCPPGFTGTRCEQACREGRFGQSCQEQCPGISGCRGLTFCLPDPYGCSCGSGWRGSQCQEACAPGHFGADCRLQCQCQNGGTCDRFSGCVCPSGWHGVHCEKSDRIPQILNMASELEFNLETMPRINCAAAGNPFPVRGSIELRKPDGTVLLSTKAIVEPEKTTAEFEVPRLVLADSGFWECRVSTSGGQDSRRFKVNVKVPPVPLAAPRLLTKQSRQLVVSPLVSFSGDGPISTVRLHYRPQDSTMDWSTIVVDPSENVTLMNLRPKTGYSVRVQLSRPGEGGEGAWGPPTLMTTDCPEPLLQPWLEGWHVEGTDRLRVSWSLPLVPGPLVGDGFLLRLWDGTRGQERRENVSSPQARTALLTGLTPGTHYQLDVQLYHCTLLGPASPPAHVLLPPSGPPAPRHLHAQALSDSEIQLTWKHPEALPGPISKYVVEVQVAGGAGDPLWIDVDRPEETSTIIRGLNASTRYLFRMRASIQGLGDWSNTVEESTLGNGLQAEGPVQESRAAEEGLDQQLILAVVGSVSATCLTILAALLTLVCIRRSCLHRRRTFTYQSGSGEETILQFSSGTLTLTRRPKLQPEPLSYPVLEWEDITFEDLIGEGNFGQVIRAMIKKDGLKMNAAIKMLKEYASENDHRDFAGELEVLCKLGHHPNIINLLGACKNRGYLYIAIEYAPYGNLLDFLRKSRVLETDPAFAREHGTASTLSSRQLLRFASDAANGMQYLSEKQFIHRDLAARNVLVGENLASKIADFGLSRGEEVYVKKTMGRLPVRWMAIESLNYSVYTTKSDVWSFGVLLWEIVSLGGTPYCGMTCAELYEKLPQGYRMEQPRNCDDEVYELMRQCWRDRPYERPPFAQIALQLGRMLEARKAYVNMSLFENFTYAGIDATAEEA", "assay": "Inhibition of TIE1 assessed as enzyme activity at 1 uM relative to untreated control", "parameters": "scale not given: the % may be the effect or the level left"}, "[6]": {"molecular_target": "Casein kinase I isoform gamma-3 (Homo sapiens) (UniProt Q9Y6M4)", "sequence (Q9Y6M4 whole entry, looked up, canonical isoform)": "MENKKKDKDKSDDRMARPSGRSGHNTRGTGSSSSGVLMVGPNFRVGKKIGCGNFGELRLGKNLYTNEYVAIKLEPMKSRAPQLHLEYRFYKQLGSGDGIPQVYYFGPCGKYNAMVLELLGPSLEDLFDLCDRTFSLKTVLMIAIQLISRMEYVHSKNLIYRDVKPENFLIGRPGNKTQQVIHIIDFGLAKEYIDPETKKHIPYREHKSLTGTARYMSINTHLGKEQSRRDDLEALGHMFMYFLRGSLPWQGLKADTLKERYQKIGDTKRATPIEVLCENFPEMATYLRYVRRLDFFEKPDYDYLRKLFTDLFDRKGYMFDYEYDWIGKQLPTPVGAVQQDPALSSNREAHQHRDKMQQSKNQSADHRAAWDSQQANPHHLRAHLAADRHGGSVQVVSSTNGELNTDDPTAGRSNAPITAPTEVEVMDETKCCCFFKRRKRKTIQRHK", "assay": "Inhibition of CSNK1G3 assessed as enzyme activity at 1 uM relative to untreated control", "parameters": "scale not given: the % may be the effect or the level left"}, "[7]": {"molecular_target": "Serine/threonine-protein kinase ULK2 (Homo sapiens) (UniProt Q8IYT8)", "assay": "Inhibition of ULK2 assessed as enzyme activity at 1 uM relative to untreated control", "parameters": "scale not given: the % may be the effect or the level left"}, "[8]": {"molecular_target": "Phosphatidylinositol 4-phosphate 5-kinase type-1 alpha (Homo sapiens) (UniProt Q99755)", "assay": "Inhibition of PIP5K1A assessed as enzyme activity at 1 uM relative to untreated control", "parameters": "scale not given: the % may be the effect or the level left"}, "[9]": {"molecular_target": "Ribosomal protein S6 kinase alpha-6 (Homo sapiens) (UniProt Q9UK32)", "assay": "Inhibition of RPS6KA6 kinase domain 1 assessed as enzyme activity at 1 uM relative to untreated control", "parameters": "scale not given: the % may be the effect or the level left"}, "[10]": {"molecular_target": "Serine/threonine-protein kinase pim-2 (Homo sapiens) (UniProt Q9P1W9)", "assay": "Inhibition of PIM2 assessed as enzyme activity at 1 uM relative to untreated control", "parameters": "scale not given: the % may be the effect or the level left"}, "[11]": {"molecular_target": "Non-receptor tyrosine-protein kinase TYK2 (Homo sapiens) (UniProt P29597)", "assay": "Inhibition of TYK2 kinase domain 2 assessed as enzyme activity at 1 uM relative to untreated control", "parameters": "scale not given: the % may be the effect or the level left"}, "[12]": {"system": "Receptor-type tyrosine-protein kinase FLT3 (Homo sapiens), P36888 [N841I]", "assay": "Inhibition of FLT3 N841I mutant assessed as enzyme activity at 1 uM relative to untreated control", "parameters": "scale not given: the % may be the effect or the level left"}, "[13]": {"molecular_target": "Serine/threonine-protein kinase RIO1 (Homo sapiens) (UniProt Q9BRS2)", "assay": "Inhibition of RIOK1 assessed as enzyme activity at 1 uM relative to untreated control", "parameters": "scale not given: the % may be the effect or the level left"}, "[14]": {"molecular_target": "Dual specificity mitogen-activated protein kinase kinase 1 (Homo sapiens) (UniProt Q02750)", "sequence (Q02750 whole entry)": "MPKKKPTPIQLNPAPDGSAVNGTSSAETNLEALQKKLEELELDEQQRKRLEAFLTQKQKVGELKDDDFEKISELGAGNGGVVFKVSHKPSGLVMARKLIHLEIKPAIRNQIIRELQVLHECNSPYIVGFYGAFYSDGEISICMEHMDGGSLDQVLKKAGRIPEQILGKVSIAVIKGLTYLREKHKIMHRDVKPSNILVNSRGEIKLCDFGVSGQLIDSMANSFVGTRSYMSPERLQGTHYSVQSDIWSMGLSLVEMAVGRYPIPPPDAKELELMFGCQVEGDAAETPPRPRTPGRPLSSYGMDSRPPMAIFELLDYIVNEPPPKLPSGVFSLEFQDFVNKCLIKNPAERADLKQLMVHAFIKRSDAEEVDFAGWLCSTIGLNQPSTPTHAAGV", "assay": "Inhibition of MEK1 assessed as enzyme activity at 1 uM relative to untreated control", "parameters": "scale not given: the % may be the effect or the level left"}, "[15]": {"molecular_target": "Platelet-derived growth factor receptor beta (Homo sapiens) (UniProt P09619)", "assay": "Inhibition of PDGFRB assessed as enzyme activity at 1 uM relative to untreated control", "parameters": "scale not given: the % may be the effect or the level left"}, "[16]": {"molecular_target": "Ribosomal protein S6 kinase alpha-4 (Homo sapiens) (UniProt O75676)", "assay": "Inhibition of RPS6KA4 kinase domain 1 assessed as enzyme activity at 1 uM relative to untreated control", "parameters": "scale not given: the % may be the effect or the level left"}, "[17]": {"molecular_target": "Tyrosine-protein kinase Blk (Homo sapiens) (UniProt P51451)", "assay": "Inhibition of BLK assessed as enzyme activity at 1 uM relative to untreated control", "parameters": "scale not given: the % may be the effect or the level left"}, "[18]": {"molecular_target": "Proto-oncogene tyrosine-protein kinase Src (Homo sapiens) (UniProt P12931)", "sequence (P12931 2-536 limits assumed)": "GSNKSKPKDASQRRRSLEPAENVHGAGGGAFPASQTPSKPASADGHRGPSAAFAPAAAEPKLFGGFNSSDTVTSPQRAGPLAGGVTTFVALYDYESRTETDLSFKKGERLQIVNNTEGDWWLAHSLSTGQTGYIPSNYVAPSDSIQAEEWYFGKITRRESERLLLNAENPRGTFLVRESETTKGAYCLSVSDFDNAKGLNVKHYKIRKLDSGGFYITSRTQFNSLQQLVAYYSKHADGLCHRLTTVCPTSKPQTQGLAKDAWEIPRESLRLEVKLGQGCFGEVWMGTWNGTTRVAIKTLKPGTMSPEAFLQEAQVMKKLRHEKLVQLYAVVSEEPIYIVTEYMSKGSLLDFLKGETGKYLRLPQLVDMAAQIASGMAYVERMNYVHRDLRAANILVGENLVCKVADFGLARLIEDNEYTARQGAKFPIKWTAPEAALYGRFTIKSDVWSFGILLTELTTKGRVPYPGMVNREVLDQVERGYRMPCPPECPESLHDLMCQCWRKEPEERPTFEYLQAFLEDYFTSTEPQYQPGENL", "assay": "Inhibition of SRC assessed as enzyme activity at 1 uM relative to untreated control", "parameters": "scale not given: the % may be the effect or the level left"}, "[19]": {"molecular_target": "5'-AMP-activated protein kinase catalytic subunit alpha-1 (Homo sapiens) (UniProt Q13131)", "assay": "Inhibition of AMPKalpha1 assessed as enzyme activity at 1 uM relative to untreated control", "parameters": "scale not given: the % may be the effect or the level left"}, "[20]": {"system": "Tyrosine-protein kinase ABL1 (Homo sapiens), P00519 [H396P]", "assay": "Inhibition of ABL1 H396P mutant assessed as enzyme activity at 1 uM relative to untreated control", "parameters": "scale not given: the % may be the effect or the level left"}, "[21]": {"molecular_target": "Protein-tyrosine kinase 6 (Homo sapiens) (UniProt Q13882)", "sequence (Q13882 whole entry, looked up)": "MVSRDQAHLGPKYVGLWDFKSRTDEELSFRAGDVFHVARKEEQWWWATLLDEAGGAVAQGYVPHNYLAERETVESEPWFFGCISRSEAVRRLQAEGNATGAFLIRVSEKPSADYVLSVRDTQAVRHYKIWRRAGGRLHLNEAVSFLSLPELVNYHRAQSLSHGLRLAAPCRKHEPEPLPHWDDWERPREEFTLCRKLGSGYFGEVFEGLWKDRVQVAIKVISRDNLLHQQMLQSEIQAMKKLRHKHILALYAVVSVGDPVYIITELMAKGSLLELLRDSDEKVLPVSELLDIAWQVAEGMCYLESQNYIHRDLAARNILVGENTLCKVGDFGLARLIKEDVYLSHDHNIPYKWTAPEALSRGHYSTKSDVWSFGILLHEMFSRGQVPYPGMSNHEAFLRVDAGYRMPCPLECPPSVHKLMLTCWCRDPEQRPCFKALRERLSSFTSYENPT", "assay": "Inhibition of PTK6 assessed as enzyme activity at 1 uM relative to untreated control", "parameters": "scale not given: the % may be the effect or the level left"}, "[22]": {"molecular_target": "Tyrosine-protein kinase JAK2 (Homo sapiens) (UniProt O60674)", "sequence (O60674 whole entry, the tested form may be a part)": "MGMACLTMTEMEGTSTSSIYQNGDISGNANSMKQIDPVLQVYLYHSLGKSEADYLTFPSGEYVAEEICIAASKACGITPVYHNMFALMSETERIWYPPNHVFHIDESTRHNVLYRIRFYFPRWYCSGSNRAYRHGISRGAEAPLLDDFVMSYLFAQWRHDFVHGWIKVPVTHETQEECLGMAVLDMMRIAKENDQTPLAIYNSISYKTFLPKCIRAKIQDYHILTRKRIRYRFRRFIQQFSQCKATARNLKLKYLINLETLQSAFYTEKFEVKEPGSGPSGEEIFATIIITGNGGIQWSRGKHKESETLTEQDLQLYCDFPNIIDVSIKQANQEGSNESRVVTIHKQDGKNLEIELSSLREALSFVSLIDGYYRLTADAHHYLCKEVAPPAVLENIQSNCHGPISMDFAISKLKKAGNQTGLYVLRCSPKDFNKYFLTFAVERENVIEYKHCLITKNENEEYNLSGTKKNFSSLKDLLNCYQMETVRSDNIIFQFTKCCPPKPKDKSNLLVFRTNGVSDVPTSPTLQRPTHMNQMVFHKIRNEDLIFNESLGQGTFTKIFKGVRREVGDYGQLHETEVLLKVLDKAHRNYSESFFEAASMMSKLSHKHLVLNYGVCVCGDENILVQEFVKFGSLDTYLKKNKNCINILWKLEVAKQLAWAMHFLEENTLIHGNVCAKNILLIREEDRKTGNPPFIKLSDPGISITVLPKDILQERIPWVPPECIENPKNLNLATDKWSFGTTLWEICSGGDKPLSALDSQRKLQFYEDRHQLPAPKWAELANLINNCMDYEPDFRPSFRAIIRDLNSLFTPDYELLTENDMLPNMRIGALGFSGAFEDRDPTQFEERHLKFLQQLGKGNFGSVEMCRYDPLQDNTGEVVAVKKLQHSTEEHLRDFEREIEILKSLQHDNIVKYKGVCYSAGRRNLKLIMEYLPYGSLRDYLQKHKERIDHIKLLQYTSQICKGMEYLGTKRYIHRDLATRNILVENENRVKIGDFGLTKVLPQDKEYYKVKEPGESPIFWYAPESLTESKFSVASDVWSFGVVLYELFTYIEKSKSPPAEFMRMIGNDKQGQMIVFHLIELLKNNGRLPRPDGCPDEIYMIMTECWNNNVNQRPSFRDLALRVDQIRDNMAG", "assay": "Inhibition of JAK2 kinase domain 2 assessed as enzyme activity at 1 uM relative to untreated control", "parameters": "scale not given: the % may be the effect or the level left"}, "[23]": {"molecular_target": "BDNF/NT-3 growth factors receptor (Homo sapiens) (UniProt Q16620)", "assay": "Inhibition of TRKB assessed as enzyme activity at 1 uM relative to untreated control", "parameters": "scale not given: the % may be the effect or the level left"}, "[24]": {"system": "Tyrosine-protein kinase ABL1 (Homo sapiens), P00519 [E255K]", "assay": "Inhibition of ABL1 E255K mutant assessed as enzyme activity at 1 uM relative to untreated control", "parameters": "scale not given: the % may be the effect or the level left"}, "[25]": {"molecular_target": "Atypical kinase COQ8A, mitochondrial (Homo sapiens) (UniProt Q8NI60)", "assay": "Inhibition of ADCK3 assessed as enzyme activity at 1 uM relative to untreated control", "parameters": "scale not given: the % may be the effect or the level left"}, "[26]": {"molecular_target": "Serine/threonine-protein kinase tousled-like 1 (Homo sapiens) (UniProt Q9UKI8)", "assay": "Inhibition of TLK1 assessed as enzyme activity at 1 uM relative to untreated control", "parameters": "scale not given: the % may be the effect or the level left"}, "[27]": {"molecular_target": "Myosin light chain kinase 2, skeletal/cardiac muscle (Homo sapiens) (UniProt Q9H1R3)", "assay": "Inhibition of MYLK2 assessed as enzyme activity at 1 uM relative to untreated control", "parameters": "scale not given: the % may be the effect or the level left"}, "[28]": {"molecular_target": "Serine/threonine-protein kinase 3 (Homo sapiens) (UniProt Q13188)", "assay": "Inhibition of MST2 assessed as enzyme activity at 1 uM relative to untreated control", "parameters": "scale not given: the % may be the effect or the level left"}, "[29]": {"molecular_target": "Serine/threonine-protein kinase 16 (Homo sapiens) (UniProt O75716)", "assay": "Inhibition of STK16 assessed as enzyme activity at 1 uM relative to untreated control", "parameters": "scale not given: the % may be the effect or the level left"}, "[30]": {"assay": "Oral bioavailability in CD1 mouse", "type": "ADME, organism-based", "settings": "in vivo"}, "[31]": {"molecular_target": "MAP kinase-activated protein kinase 5 (Homo sapiens) (UniProt Q8IW41)", "assay": "Inhibition of MAPKAPK5 assessed as enzyme activity at 1 uM relative to untreated control", "parameters": "scale not given: the % may be the effect or the level left"}, "[32]": {"molecular_target": "Serine/threonine-protein kinase 25 (Homo sapiens) (UniProt O00506)", "assay": "Inhibition of YSK1 assessed as enzyme activity at 1 uM relative to untreated control", "parameters": "scale not given: the % may be the effect or the level left"}, "[33]": {"molecular_target": "Serine/threonine-protein kinase 32B (Homo sapiens) (UniProt Q9NY57)", "assay": "Inhibition of YANK2 assessed as enzyme activity at 1 uM relative to untreated control", "parameters": "scale not given: the % may be the effect or the level left"}, "[34]": {"molecular_target": "Dual specificity tyrosine-phosphorylation-regulated kinase 1B (Homo sapiens) (UniProt Q9Y463)", "assay": "Inhibition of DYRK1B assessed as enzyme activity at 1 uM relative to untreated control", "parameters": "scale not given: the % may be the effect or the level left"}, "[35]": {"molecular_target": "Mitogen-activated protein kinase kinase kinase 10 (Homo sapiens) (UniProt Q02779)", "assay": "Inhibition of MLK2 assessed as enzyme activity at 1 uM relative to untreated control", "parameters": "scale not given: the % may be the effect or the level left"}, "[36]": {"molecular_target": "Proto-oncogene tyrosine-protein kinase ROS (Homo sapiens) (UniProt P08922)", "assay": "Inhibition of ROS1 assessed as enzyme activity at 1 uM relative to untreated control", "parameters": "scale not given: the % may be the effect or the level left"}, "[37]": {"molecular_target": "Receptor-interacting serine/threonine-protein kinase 4 (Homo sapiens) (UniProt P57078)", "assay": "Inhibition of RIPK4 assessed as enzyme activity at 1 uM relative to untreated control", "parameters": "scale not given: the % may be the effect or the level left"}}}
{"compound": "Cc1ccc2c(Nc3ccc(Cl)cc3)nccc2c1Nc1ncccc1-c1ncnc2[nH]cnc12.Cl.Cl.Cl", "values": [{"measurement": "Activity", "setting": "[1]", "value": 100, "unit": "%"}, {"measurement": "Activity", "setting": "[2]", "value": 77, "unit": "%"}, {"measurement": "Activity", "setting": "[3]", "value": 79, "unit": "%"}, {"measurement": "Activity", "setting": "[4]", "value": 100, "unit": "%"}, {"measurement": "Activity", "setting": "[5]", "value": 4.9, "unit": "%"}, {"measurement": "Activity", "setting": "[6]", "value": 100, "unit": "%"}, {"measurement": "Activity", "setting": "[7]", "value": 100, "unit": "%"}, {"measurement": "Activity", "setting": "[8]", "value": 95, "unit": "%"}, {"measurement": "Activity", "setting": "[9]", "value": 92, "unit": "%"}, {"measurement": "Activity", "setting": "[10]", "value": 100, "unit": "%"}, {"measurement": "Activity", "setting": "[11]", "value": 28, "unit": "%"}, {"measurement": "Activity", "setting": "[12]", "value": 100, "unit": "%"}, {"measurement": "Activity", "setting": "[13]", "value": 92, "unit": "%"}, {"measurement": "Activity", "setting": "[14]", "value": 100, "unit": "%"}, {"measurement": "Activity", "setting": "[15]", "value": 78, "unit": "%"}, {"measurement": "Activity", "setting": "[16]", "value": 100, "unit": "%"}, {"measurement": "Activity", "setting": "[17]", "value": 75, "unit": "%"}, {"measurement": "Activity", "setting": "[18]", "value": 73, "unit": "%"}, {"measurement": "Activity", "setting": "[19]", "value": 89, "unit": "%"}, {"measurement": "Activity", "setting": "[20]", "value": 84, "unit": "%"}, {"measurement": "Activity", "setting": "[21]", "value": 13, "unit": "%"}, {"measurement": "Activity", "setting": "[22]", "value": 3.9, "unit": "%"}, {"measurement": "Activity", "setting": "[23]", "value": 9.4, "unit": "%"}, {"measurement": "Activity", "setting": "[24]", "value": 80, "unit": "%"}, {"measurement": "Activity", "setting": "[25]", "value": 100, "unit": "%"}, {"measurement": "Activity", "setting": "[26]", "value": 83, "unit": "%"}, {"measurement": "Activity", "setting": "[27]", "value": 100, "unit": "%"}, {"measurement": "Activity", "setting": "[28]", "value": 100, "unit": "%"}, {"measurement": "Activity", "setting": "[29]", "value": 100, "unit": "%"}, {"measurement": "bioavailability", "setting": "[30]", "value": 79, "unit": "%"}, {"measurement": "Activity", "setting": "[31]", "value": 64, "unit": "%"}, {"measurement": "Activity", "setting": "[32]", "value": 100, "unit": "%"}, {"measurement": "Activity", "setting": "[33]", "value": 95, "unit": "%"}, {"measurement": "Activity", "setting": "[34]", "value": 100, "unit": "%"}, {"measurement": "Activity", "setting": "[35]", "value": 99, "unit": "%"}, {"measurement": "Activity", "setting": "[36]", "value": 72, "unit": "%"}, {"measurement": "Activity", "setting": "[37]", "value": 64, "unit": "%"}]}
